In patent US10472346B2, “Potent gamma-secretase modulators” (The General Hospital Coporation, priority 2014, dated 2019):

Key:
Aβ42 = Aβ42 IC50 assay (SHSYSY-APP cell-based screening, UCSD sandwich Aβ42 ELISA)
Text: FIG. 8: Representative concentration response curves of Compound 1 using our primary and orthogonal medium throughput SHSYSY-APP cell-based screening assays (10). Compounds are first screened two times in triplicate in our UCSD sandwich Aβ42 ELISA on sequential days and the average of the two assays must be within 3-fold of each other before being entered into the CDD relational database. The UCSD sandwich ELISA assay can easily handle 20 compounds per week. Compounds with Aβ42 IC50 values <100 nM continue through the testing funnel. The Z′ score and the % CV for the UCSD Aβ42 sandwich ELISA assay are 0.8 and 4, respectively. For the Meso Scale triplex assay the Z′ scores are 0.7, 0.9 and 0.6 Aβ42, Aβ40 and Aβ38, respectively and the % CV's are 7, 2 and 1 for Aβ42, Aβ40 and Aβ38, respectively. Aβ total peptides are measured using a sandwich ELISA.
Tabular Results of A1142 Assays Conducted on Compounds of Examples 5-102. Assays are Aβ42 IC50 (nM).

Notch processing = Notch processing in transfected H4-APP751 cells (Western blot, Myc antibody, NICD); format: cell-based, human; settings: 24 hrs
Text: Cells were harvested 48 hrs post transfection and applied to Western blotting analysis. Myc antibody was utilized to assess the NAED and NICD tagged with Myc on their N-termini. β-Actin was utilized as the loading control.
Cells were harvested 48 hrs post transfection and subjected to Western blotting analysis. Myc antibody was utilized to assess the NδED and NICD tagged with Myc on their N-termini.
Stable H4 human neuroglioma cells over-expressing human APP751, or H4-APP751 cells, were transfected with the NAE construct, and then treated with different concentrations SGSM Compound 1 (Lanes 1-6) or DAPT (Lanes 7-10) for another 24 hrs and are shown in FIG. 9. Cells were harvested 48 hrs post transfection and applied to Western blotting analysis. Myc antibody was utilized to assess the NAED and NICD tagged with Myc on their N-termini β-Actin was utilized as the loading control.
Stably-transfected H4 human neuroglioma cells over-expressing human APP751 (H4-APP751) cells, were transfected with the Notch NδED construct, and then treated with vehicle, or different doses of GSMs (40 nM, 200 nM, 1000 nM, and 5000 nM) for 24 hrs. Cells were harvested 48 hrs post transfection and subjected to Western blotting analysis.

Structure (SMILES)	melting point	IC50 (Aβ42)	other results
COc1nc(-c2ccc(N)nn2)ccc1-n1cnc(C)c1 [Example 24A, 6-(6-Methoxy-5-(4-methyl-1H-imidazol-1-yl)pyridin-2-yl)pyridazin-3-amine]	> 250 °C	–	–
COc1nc(-c2cc(C)c(N[C@@H]3C[C@H]3c3ccccc3)nn2)ccc1-n1cnc(C)c1 (racemic) [Example 72, (+/−)-trans-6-(6-methoxy-5-(4-methyl-1H-imidazol-1-yl)pyridin-2-yl)-4-methyl-N-(2-phenylcyclopropyl)pyridazin-3-amine]	99 to 102 °C	0.0071 µM	–
COc1nc(-c2ccc(NCc3ccc(F)cc3)nn2)ccc1-n1cnc(C)c1 [Example 26, N-(4-fluorobenzyl)-6-(6-methoxy-5-(4-methyl-1H-imidazol-1-yl)pyridin-2-yl)pyridazin-3-amine]	170 to 172 °C	0.036 µM	–
C[C@H](NC(=O)Cc1cc(F)cc(F)c1)C(=O)N[C@H](C(=O)OC(C)(C)C)c1ccccc1 [DAPT, reference compound]	–	–	Notch processing (NICD, Western blot) (Notch processing; H4-APP751 cells transfected with the NAE construct, different concentrations): significantly inhibits Notch processing; Notch processing (NICD levels, Western blot) (Notch processing; H4-APP751 cells transfected with the Notch NδED construct, 40 nM, 200 nM, 1000 nM, and 5000 nM): significantly inhibits Notch processing
COc1nc(-c2nnc(N[C@@H](C)c3ccccc3)cc2C)ccc1-n1cnc(C)c1 [Example 28, (S)-6-(6-methoxy-5-(4-methyl-1H-imidazol-1-yl)pyridin-2-yl)-5-methyl-N-(1-phenylethyl)pyridazin-3-amine]	140 to 143 °C	0.018 µM	–
COc1nc(-c2cc(C(C)C)c(NCc3ccc(F)cc3)nn2)ccc1-n1cnc(C)c1 [Example 13, N-(4-fluorobenzyl)-4-isopropyl-6-(6-methoxy-5-(4-methyl-1H-imidazol-1-yl)pyridin-2-yl)pyridazin-3-amine]	245 to 246 °C	0.021 µM	–
COc1nc(-c2cc(C)c(N[C@@H](C)c3ccccc3)nn2)ccc1-n1cnc(C)c1 [Example 35, (S)-6-(6-methoxy-5-(4-methyl-1H-imidazol-1-yl)pyridin-2-yl)-4-methyl-N-(1-phenylethyl)pyridazin-3-amine]	–	0.012 µM	–
COc1nc(-c2cc(C)c(N[C@@H](C)c3ccc(Cl)cc3)nn2)ccc1-n1cnc(C)c1 [Example 31, (S)—N-(1-(4-chlorophenyl)ethyl)-6-(6-methoxy-5-(4-methyl-1H-imidazol-1-yl)pyridin-2-yl)-4-methylpyridazin-3-amine]	–	0.0058 µM	–
COc1nc(-c2cc(C)c(N[C@@H](C)c3ccncc3)nn2)ccc1-n1cnc(C)c1 [Example 59, (S)-6-(6-methoxy-5-(4-methyl-1H-imidazol-1-yl)pyridin-2-yl)-4-methyl-N-(1-(pyridin-4-yl)ethyl)pyridazin-3-amine]	–	0.778 µM	–
COc1ccccc1[C@H](C)Nc1nnc(-c2ccc(-n3cnc(C)c3)c(OC)n2)cc1C [Example 41, (S)-6-(6-methoxy-5-(4-methyl-1H-imidazol-1-yl)pyridin-2-yl)-N-(1-(2-methoxyphenyl)ethyl)-4-methylpyridazin-3-amine]	–	0.0175 µM	–
COc1nc(-c2ccc(NC(=O)c3ccc(F)cc3)nn2)ccc1-n1cnc(C)c1 [Example 24B, 4-Fluoro-N-(6-(6-methoxy-5-(4-methyl-1H-imidazol-1-yl)pyridin-2-yl)pyridazin-3-yl)benzamide]	> 250 °C	> 10 µM	–
COc1nc(-c2cc(C)c(NC(C)Cc3ccc(F)cc3)nn2)ccc1-n1cnc(C)c1 (racemic) [Example 54, (+/−)—N-(1-(4-fluorophenyl)propan-2-yl)-6-(6-methoxy-5-(4-methyl-1H-imidazol-1-yl)pyridin-2-yl)-4-methylpyridazin-3-amine]	–	0.029 µM	–
CCC[C@H](Nc1nnc(-c2ccc(-n3cnc(C)c3)c(OC)n2)cc1C)c1ccccc1F [Example 86, (S)—N-(1-(2-fluorophenyl)butyl)-6-(6-methoxy-5-(4-methyl-1H-imidazol-1-yl)pyridin-2-yl)-4-methylpyridazin-3-amine]	–	0.0045 µM	–
COc1nc(-c2cc(C)c(NC(C)C)nn2)ccc1-n1cnc(C)c1 [Example 65, N-isopropyl-6-(6-methoxy-5-(4-methyl-1H-imidazol-1-yl)pyridin-2-yl)-4-methylpyridazin-3-amine]	228 to 229 °C	0.188 µM	–
COc1nc(-c2cc(C)c(N[C@@H](C)c3ccc(F)c(C)c3)nn2)ccc1-n1cnc(C)c1 [Example 51, (S)—N-(1-(4-fluoro-3-methylphenyl)ethyl)-6-(6-methoxy-5-(4-methyl-1H-imidazol-1-yl)pyridin-2-yl)-4-methylpyridazin-3-amine]	–	0.0083 µM	–
COc1ccc([C@H](C)Nc2nnc(-c3ccc(-n4cnc(C)c4)c(OC)n3)cc2C)cc1 [Example 36, (S)-6-(6-methoxy-5-(4-methyl-1H-imidazol-1-yl)pyridin-2-yl)-N-(1-(4-methoxyphenyl)ethyl)-4-methylpyridazin-3-amine]	–	0.0065 µM	–
COc1nc(-c2ccc(N[C@@H](C)c3ccc(F)cc3)nn2)ccc1-n1cnc(C)c1 [Compound 2, (S)—N-(1-(4-Fluorophenyl)ethyl)-6-(6-methoxy-5-(4-methyl-1H-imidazol-1-yl)pyridin-2-yl)pyridazin-3-amine]	96 to 102 °C	–	–
COC[C@H](C)Nc1nnc(-c2ccc(-n3cnc(C)c3)c(OC)n2)cc1C [Example 62, (S)-6-(6-methoxy-5-(4-methyl-1H-imidazol-1-yl)pyridin-2-yl)-N-(1-methoxypropan-2-yl)-4-methylpyridazin-3-amine]	–	2.16 µM	–
COc1cccc([C@H](C)Nc2nnc(-c3ccc(-n4cnc(C)c4)c(OC)n3)cc2C)c1 [Example 44, (S)-6-(6-methoxy-5-(4-methyl-1H-imidazol-1-yl)pyridin-2-yl)-N-(1-(3-methoxyphenyl)ethyl)-4-methylpyridazin-3-amine]	–	0.0105 µM	–
CCc1cc(-c2ccc(-n3cnc(C)c3)c(OC)n2)nnc1N[C@@H](C)c1ccc(F)cc1 [Example 5, (S)-4-Ethyl-N-(1-(4-fluorophenyl)ethyl)-6-(6-methoxy-5-(4-methyl-1H-imidazol-1-yl)pyridin-2-yl)pyridazin-3-amine]	–	0.0078 µM	–
COc1nc(-c2cc(C)c(N[C@@H](C)c3ccccc3C(F)(F)F)nn2)ccc1-n1cnc(C)c1 [Example 56, (S)-6-(6-methoxy-5-(4-methyl-1H-imidazol-1-yl)pyridin-2-yl)-4-methyl-N-(1-(2-(trifluoromethyl)phenyl)ethyl)pyridazin-3-amine]	–	0.003 µM	–
CCc1cc(-c2ccc(-n3cnc(C)c3)c(OC)n2)nnc1N[C@H](C)c1ccc(F)cc1 [Example 10, (R)-4-ethyl-N-(1-(4-fluorophenyl)ethyl)-6-(6-methoxy-5-(4-methyl-1H-imidazol-1-yl)pyridin-2-yl)pyridazin-3-amine]	–	0.0475 µM	–
COc1nc(-c2cc(C)c(NCCc3ccc(F)cc3)nn2)ccc1-n1cnc(C)c1 [Example 50, N-(4-fluorophenethyl)-6-(6-methoxy-5-(4-methyl-1H-imidazol-1-yl)pyridin-2-yl)-4-methylpyridazin-3-amine]	204 to 206 °C	0.038 µM	–
COc1nc(-c2cc(C)c(NCCCc3ccc(F)cc3)nn2)ccc1-n1cnc(C)c1 [Example 73, N-(3-(4-fluorophenyl)propyl)-6-(6-methoxy-5-(4-methyl-1H-imidazol-1-yl)pyridin-2-yl)-4-methylpyridazin-3-amine]	204 to 206 °C	0.026 µM	–
COc1nc(-c2ccc(NC(C)(C)c3ccc(F)cc3)nn2)ccc1-n1cnc(C)c1 [Example 23, N-(2-(4-Fluorophenyl)propan-2-yl)-6-(6-methoxy-5-(4-methyl-1H-imidazol-1-yl)pyridin-2-yl)pyridazin-3-amine]	–	0.022 µM	–
CC[C@@H](c1ccc(F)cc1)N(C)c1nnc(-c2ccc(-n3cnc(C)c3)c(OC)n2)cc1C [Example 21, (S)—N-(1-(4-fluorophenyl)propyl)-6-(6-methoxy-5-(4-methyl-1H-imidazol-1-yl)pyridin-2-yl)-N,4-dimethylpyridazin-3-amine]	–	0.061 µM	–
COc1nc(-c2cc(C)c(N[C@@H](C)C3CCCCC3)nn2)ccc1-n1cnc(C)c1 [Example 58, (S)—N-(1-cyclohexylethyl)-6-(6-methoxy-5-(4-methyl-1H-imidazol-1-yl)pyridin-2-yl)-4-methylpyridazin-3-amine]	–	0.012 µM	–
COc1nc(-c2cc(C)c(N[C@@H](C)c3cccc(F)c3)nn2)ccc1-n1cnc(C)c1 [Example 38, (S)—N-(1-(3-fluorophenyl)ethyl)-6-(6-methoxy-5-(4-methyl-1H-imidazol-1-yl)pyridin-2-yl)-4-methylpyridazin-3-amine]	–	0.007 µM	–
